This series can be described thus: solvent given as SMILES.
Setting [1] is: in O=P(c1ccccc1)(c1ccccc1)c1ccccc1Oc1ccccc1P(=O)(c1ccccc1)c1ccccc1.

Turning to `COc1cc(-c2cc(-c3ccc(C)cc3)nc3c(C#N)c(N4CCCC4)nc(N)c23)cc(OC)c1OC`, the emission maximum was determined as 525 nm (in CC#N); 521 nm (in CC(C)=O); 513 nm (in CC(C)O); 526 nm (in CO); 509 nm (in ClC(Cl)Cl); 515 nm (in ClCCl). For the same compound, the emission maximum (in c1ccccc1) was found to be 508 nm.
Compound `N#Cc1ccc(/C=C/c2ncc(-c3ccccc3)o2)cc1` had an emission maximum (in ClCCl) of 450 nm.
In the case of `Cc1ccc(C)n1-c1cccc(C#N)c1`, the emission maximum runs as follows: (in C1CCOC1) 481 nm; (in CCCCCC) 403 nm; (in CCCCCl) 477 nm; (in CCOCC) 444 nm; (in ClCCl) 504 nm.
As to `COc1ccc(-c2cc3c4c(c2)CCc2cc(-c5ccc(OC)cc5)cc(c2-4)CC3)cc1`, the emission maximum by setting is: (in C1CCCCC1) 386.34 nm; (in C1CCOC1) 390.22 nm; (in CC#N) 388.06 nm; (in CCCCCC) 384.62 nm; (in CCO) 386.99 nm; (in CN(C)C=O) 392.15 nm. The emission maximum is given as 386.56 nm (in CO), 391.46 nm (in ClC(Cl)Cl) and 391.08 nm (in ClCCl).
`COc1ccc(C(=Cc2ccc(/C=C/c3ccc(C#N)cc3)cc2)c2ccc(OC)cc2)cc1` showed an emission maximum (in C1CCOC1) of 467 nm.
In turn, `Cc1ccc(-c2sc(/C(C#N)=C/c3ccc(C#N)cc3)nc2-c2ccc(Cl)cc2)cc1` showed an emission maximum (in CC#N) of 535 nm.
`O=C(c1ccc(-n2c3ccccc3c3ccccc32)cc1)c1ccc(-n2c3ccccc3c3ccccc32)cc1` registered an emission maximum (in Cc1ccccc1) of 438 nm and an emission maximum under setting [1] of 444 nm.
`CC1(C)c2ccccc2N(c2ccc(B3c4ccccc4Oc4ccccc43)cc2)c2ccccc21` came in with an emission maximum (in Cc1ccccc1) of 472 nm.
As for `COc1cccc(-n2c(-c3ccccc3)nc(C)c2C)c1`, the emission maximum by setting is: (in C1COCCO1) 366 nm; (in CC#N) 373 nm; (in CCCCCC) 365 nm; (in CCCCO) 370 nm; (in CCO) 369 nm; (in CCOC(C)=O) 370 nm. The same compound gave an emission maximum (in CO) of 368 nm, an emission maximum (in ClC(Cl)Cl) of 366 nm, an emission maximum (in ClCCl) of 364 nm and an emission maximum (in c1ccccc1) of 372 nm.
For the compound `CCCCCCCCN1C(=O)c2ccc3c4c(-c5ccc(-n6c7ccccc7c7ccccc76)cc5)cc5c6c(cc(-c7ccc(-n8c9ccccc9c9ccccc98)cc7)c(c7ccc(c2c37)C1=O)c64)C(=O)N(CCCCCCCC)C5=O`, where the note is “in ClC(Cl)Cl”, the emission maximum amounted to 651 nm.
Regarding `CCCCCc1ccc(C#Cc2cc(C#Cc3ccc(CCCCC)cc3)c3ccc4c(C(=O)c5ccccc5)cc(C#Cc5ccc(CCCCC)cc5)c5ccc2c3c54)cc1`, where the note is “in ClCCl”, the emission maximum is given as 511 nm.
Same read-out and setting: to `Fc1ccc(C#Cc2nc(C#Cc3ccc(F)cc3)c(C#Cc3ccc(F)cc3)c(C#Cc3ccc(F)cc3)c2C#Cc2ccc(F)cc2)cc1` belongs 436 nm.
In the case of `COc1ccc(C2=C3C(/C=C/c4cc(OC)c(OC)c(OC)c4)=C(C=O)C(/C=C/c4cc(OC)c(OC)c(OC)c4)=[N+]3[B-](F)(F)n3c(/C=C/c4cc(OC)c(OC)c(OC)c4)c(C=O)c(C=Cc4cc(OC)c(OC)c(OC)c4)c32)cc1`, where the note is “in ClCCl”, the emission maximum was determined as 722 nm.
As to `CC1(C)C(/C=C/C2=C(Oc3ccc(CCN=C=S)cc3Cl)C(=C/C=C3/N(CCCS(=O)(=O)[O-])c4ccccc4C3(C)C)/CCC2)=[N+](CCCS(=O)(=O)[O-])c2ccccc21`, where the note is “in CO”, the emission maximum was 797 nm.
Consider `Cc1cc2ccccc2cc1C`, for which the emission maximum (in C1CCCCC1) was determined as 339.21 nm.
Turning to `CCCCn1c2ccc(-c3ccc4ccccc4c3)cc2c2ccc3c4cc(-c5ccc6ccccc6c5)ccc4n(CCCC)c3c21`, the emission maximum (in ClC(Cl)Cl) is on record as 418 nm.
Still for that read-out and setting: the figure for `Cc1ccc(C2=CC(c3ccc(C)cc3)=[N+]3C2=Nc2c(-c4ccc(C)cc4)cc(-c4ccc(C)cc4)n2[B-]3(F)F)cc1` is 697 nm.
Regarding `CNc1cccc2c1-c1ccccc1C2=O`, the emission maximum by setting is: (in C1CCCCC1) 536 nm; (in CC#N) 638 nm; (in CCO) 686 nm; (in c1ccccc1) 570 nm.
In turn, `CCCCCCCCCCOc1cc(OCCCCCCCCCC)cc(C2=C3C(/C=C/c4ccc(OC)cc4)=C(C#Cc4ccc(C(C)(C)C)cc4)C(/C=C/c4ccc(OC)cc4)=[N+]3[B-](F)(F)n3c(/C=C/c4ccc(OC)cc4)c(C#Cc4ccc(C(C)(C)C)cc4)c(/C=C/c4ccc(OC)cc4)c32)c1` had an emission maximum (in ClC(Cl)Cl) of 756 nm.
For the compound `O=C1c2ccccc2C2=Nc3cccc4cccc(c34)N12`, the emission maximum (in ClCCl) was 596 nm.
Consider `COc1cc2c3c4c(c5ccc(C(C)(C)C)cc5c5c(OC)cc(OC)c(c2c(OC)c1OC)c45)=[N+]1C3=Nc2c3c4cc(OC)c(OC)c(OC)c4c4c(OC)cc(OC)c5c6cc(C(C)(C)C)ccc6c(c3c54)n2[B-]1(F)F`, for which the emission maximum (in Cc1ccccc1) is reported as 907 nm.
`CCCCOc1c(C#N)cc2cc(C#N)c(OCCCC)c3c4c(OCCCC)c(C#N)cc5cc(C#N)c(OCCCC)c(c1c23)c54` returned an emission maximum (in ClCCl) of 514 nm.
On the same count and under the same terms, the figure for `CCCCN1C(=O)C2=C(c3ccc(-c4ccccc4)cc3)NC(=O)C2=C1c1ccc(-c2ccccc2)cc1` is 545 nm.
`CCCC1=Cc2nc1ccc1[nH]c(cc1CCC)c1nc(c(OC(C)=O)cc3[nH]c2cc3CCC)C(CCC)=C1` showed an emission maximum (in Cc1ccccc1) of 650 nm.
For the setting “in C1CCOC1”, `C(=C\c1cc2ccccc2c2ccccc12)/c1cc2ccccc2c2ccccc12` registered an emission maximum of 416 nm.
For the setting “in ClCCl”, `CCOC(=O)c1ccc(C2CC(c3cccc4ccccc34)=NN2c2ccc(F)cc2)cc1` (stereo not drawn) gave an emission maximum of 481 nm.
Under “in CCO”, `COc1cc(OC)cc(C(=O)OCc2c(C)c(=O)n3c(=O)c(C)c(C)n23)c1` returned an emission maximum of 462 nm.
On to `COc1ccc(-c2ccc(-c3c4c(nc5ccccc35)-c3cc5c(cc3CC4)-c3nc4ccccc4c(-c4ccc(-c6ccc(OC)cc6)cc4)c3CC5)cc2)cc1`, for which the emission maximum (in ClC(Cl)Cl) was 388 nm.
Consider `N#Cc1c(N2CCCCC2)cc(-c2ccc(O)cc2)c2c1-c1cccc3cccc-2c13`, for which the emission maximum (in C1CCCCC1) is given as 527 nm; the emission maximum (in C1COCCO1) came to 540 nm; the emission maximum (in CC#N) was determined as 569 nm; the emission maximum (in CCO) was determined as 548 nm; the emission maximum (in CN(C)C=O) turned out to be 573 nm; the emission maximum (in CO) was 554 nm. The emission maximum reads like this: (in CS(C)=O) 580 nm; (in Cc1ccccc1) 530 nm; (in ClCCl) 545 nm; (in O) 550 nm.
In the case of `COc1ccc(-c2nnc(-c3cc(-c4nnc(-c5ccc(OC)cc5)o4)c(-n4c5ccccc5c5ccccc54)cc3-n3c4ccccc4c4ccccc43)o2)cc1`, the emission maximum worked out at 428 nm (in Cc1ccccc1) and 452 nm under setting [1].
In the case of `OC1(c2ccc(-c3cccs3)s2)CCCCC1`, the emission maximum by setting is: (in C1CCOC1) 458 nm; (in CC#N) 466 nm; (in CCCCCC) 465 nm; (in CCO) 465 nm; (in OCCOCCO) 447 nm; (in c1ccncc1) 475 nm.
Take `CC(C)(C)C1CCC(=CS/C=C/c2ccc(-c3ccc(/C=C/SC=C4CCC(C(C)(C)C)CC4)cc3)cc2)CC1` (stereo not drawn): the emission maximum (in ClCCl) is reported as 432 nm.

For the origin of these results see the Deep4Chem optical property database.
